Experimental data as given in patent US7732434B2, “Macrocyclic acyl guanidines as beta-secretase inhibitors” (Bristol-Myers Squibb Company, priority 2007, dated 2010).
Read-outs that look alike come from different tables or passages of the source.

Key:
[1] = target: T1, BACE1 enzyme (Homo sapiens, UniProt P56817); experiment: Radioligand displacement assay with a radiolabeled BACE inhibitor, HEK293-9B.A1 cell homogenate; type: binding; conditions: displacement of 1 nM radioligand, HEK293-9B.A1 homogenate, pH 5.0, 1.5 hr at 25° C.; read-out: Activity Rating (activity based on IC50 values)
T1 construct: The HEK293-9B.A1 cell line, which overexpresses the BACE1 enzyme, was derived from HEK293 cells; endogenous in cells; washed 48,000 x g pellet of cell homogenate
T1 sequence (P56817 46-501): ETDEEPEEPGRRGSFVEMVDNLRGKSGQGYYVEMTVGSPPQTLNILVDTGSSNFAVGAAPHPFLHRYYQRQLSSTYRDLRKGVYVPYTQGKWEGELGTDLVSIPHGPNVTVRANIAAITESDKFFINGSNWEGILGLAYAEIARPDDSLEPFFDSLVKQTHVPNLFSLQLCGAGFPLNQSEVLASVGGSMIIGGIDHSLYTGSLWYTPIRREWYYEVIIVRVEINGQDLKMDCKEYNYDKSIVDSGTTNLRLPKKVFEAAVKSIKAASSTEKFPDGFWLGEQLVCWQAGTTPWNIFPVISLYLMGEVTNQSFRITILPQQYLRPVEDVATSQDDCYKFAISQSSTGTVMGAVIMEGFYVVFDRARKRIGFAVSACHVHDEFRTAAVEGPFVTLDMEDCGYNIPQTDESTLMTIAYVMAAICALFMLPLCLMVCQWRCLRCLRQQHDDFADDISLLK
Experimental: Radioligand displacement assays with a radiolabeled BACE inhibitor (WO 2004 013098, compound 3, where the methoxy group is substituted for C(^3H)3) were carried out using standard methods (Keen, M. (1999) in Receptor Binding Techniques (Walker, J. M. ed) p. 106Humana Press, Totowa, N.J.). The HEK293-9B.A1 cell line, which overexpresses the BACE1 enzyme, was derived from HEK293 cells (Simmons, N. L. (1990) A cultured human renal epithelioid cell line responsive to vasoactive intestinal peptide. Exp. Physiol. 75:309-19.) by RAGE™ (Harrington, J. J. et al. (2001) Creation of genome-wide protein expression libraries using random activation of gene expression. Nat. Biotechnol. 19:440-5.; U.S. Pat. Nos. 6,410,266 and 6,361,972). T225 flask cultures of HEK293-9B.A1 were grown to 80% confluency in DMEM supplemented with 2 mM L-glutamine, 10 μg/ml penicillin, 10 μg/ml streptomycin, 3 μg/ml puromycin, 100 nM methotrexate, and 10% fetal bovine serum (Invitrogen, Carlsbad, Calif.), harvested, and resuspended at 2×10^8 cells per 10 ml of lysis buffer consisting of 50 mM HEPES pH 7.0 containing a protease inhibitor cocktail of AEBSF 104 μM, aprotinin 80 nM, leupeptin 2 μM, bestatin 4 μM, pepstatin A 1.5 μM, and E-64 1.4 μM (0.1% of protease inhibitor cocktail P8340, Sigma-Aldrich, St. Louis, Mo.) at 4° C. The resuspended cells were homogenized using a Polytron (Brinkman, Westbury, N.Y.) at setting 6 for 10 sec., then centrifuged at 48,000×g for 10 min. The resulting pellet was washed by repeating the resuspension, homogenization and centrifugation steps. The final pellet was resuspended in buffer at 4° C. to yield a total protein concentration of 5 mg/ml, then aliquots were frozen in liquid nitrogen for further storage at −70° C. Immediately before carrying out a binding assay, an aliquot of cell homogenate was thawed and diluted to a concentration of 100 μg/ml in assay buffer consisting of 50 mM HEPES pH 5.0 and 0.1% CHAPSO. Assays were initiated in polypropylene 96-well plates (Costar, Cambridge, Mass.) by the addition of 200 μl of cell homogenate to 50 μl of assay buffer containing 1 nM radioligand (WO 2004 013098, compound 3, where the methoxy group is substituted for C(^3H)3: 80 Ci/mMol) and various concentrations of unlabelled compounds, and incubated for 1.5 hr. at 25° C. Separation of bound from free radioligand was by filtration on GFF glass fiber filters (Innotech Biosystems International, Lansing, Mich.) using an Innotech cell harvester. Filters were washed three times with 0.3 ml of phosphate buffered saline pH 7.0 at 4° C. and assessed for radioactivity using a Wallac 1450 Microbeta liquid scintillation counter (PerkinElmer, Boston, Mass.). Ki values of competing compounds were derived through Cheng-Prussoff correction of IC50 values calculated using XLfit (IDBS, Guildford, UK).

[2] = rcm bond, 1,2-dichloroethane

SMILES | IC50 [1] | further results
Cc1onc2c1C(=O)/N=C(\N)NCc1cc(Cl)c(c(Cl)c1)NC(=O)CNCCCC/C=C\COc1ccc-2cc1 [Example 7, (24Z)-9-Amino-14,33-dichloro-5-methyl-4,27-dioxa-3,8,10,16,19-pentaazatetracyclo[26.2.2.2^12,15.0^2,6]tetratriaconta-1(30),2,5,8,12,14,24,28,31,33-decaene-7,17-dione] | < 5 nM | 
Cc1onc2c1C(=O)N=C(NC(=O)OC(C)(C)C)NCc1cc(Cl)c(c(Cl)c1)NC(=O)CN(C(=O)OC(C)(C)C)CC=CCOc1ccc-2cc1 |  | ring closure, yield of all isomers ([2]; from C=CCOc1ccc(-c2noc(C)c2C(=O)/N=C(/NCc2cc(Cl)c(NC(=O)CN(CC=C)C(=O)OC(C)(C)C)c(Cl)c2)NC(=O)OC(C)(C)C)cc1, Grubbs Catalyst 2nd Generation, 5.84 mM, 45.0 °C, 2.0 h): 53%
Cc1snc2c1C(=O)/N=C(\N)NCc1cc(Cl)c(c(Cl)c1)NC(=O)CNCCCCCCOc1ccc-2cc1 [Example 5, 9-Amino-14,32-dichloro-5-methyl-26-oxa-4-thia-3,8,10,16,19-pentaazatetracyclo[25.2.2.2^12,15.0^2,6]tritriaconta-1(29),2,5,8,12,14,27,30,32-nonaene-7,17-dione] | 5 to 50 nM | 
Cc1snc2c1C(=O)N=C(NC(=O)OC(C)(C)C)NCc1cc(Cl)c(c(Cl)c1)NC(=O)CN(C(=O)OC(C)(C)C)CCCC=CCOc1ccc-2cc1 |  | ring closure, yield of all isomers ([2]; from C=CCCCN(CC(=O)Nc1c(Cl)cc(CN/C(=N/C(=O)c2c(-c3ccc(OCC=C)cc3)nsc2C)NC(=O)OC(C)(C)C)cc1Cl)C(=O)OC(C)(C)C, Grubbs Catalyst 1st Generation, 3.04 mM, 70.0 °C, 6.0 h): 68%
Cc1onc2c1C(=O)N=C(NC(=O)OC(C)(C)C)NCc1cc(Cl)c(c(Cl)c1)NC(=O)CN(C(=O)OC(C)(C)C)CCCC=CCOc1ccc-2cc1 |  | ring closure, yield of all isomers ([2]; from C=CCCCN(CC(=O)Nc1c(Cl)cc(CN/C(=N/C(=O)c2c(-c3ccc(OCC=C)cc3)noc2C)NC(=O)OC(C)(C)C)cc1Cl)C(=O)OC(C)(C)C, Grubbs Catalyst 2nd Generation, 3.94 mM, 40.0 °C, 2.0 h): 69.9%
Cc1onc2c1C(=O)/N=C(\N)NCc1cc(Cl)c(c(Cl)c1)NC(=O)CNCCC/C=C\COc1ccc-2cc1 [Example 3, 9-Amino-14,32-dichloro-5-methyl-4,26-dioxa-3,8,10,16,19-pentaazatetracyclo-[25.2.2.2^12,15.0^2,6]tritriaconta-1(29),2,5,8,12,14,23,27,30,32-decaene-7,17-dione] | 5 to 50 nM | 
Cc1snc2c1C(=O)/N=C(\N)NCc1cc(Cl)c(c(Cl)c1)NC(=O)CN(Cc1ccccc1)CCCC=CCOc1ccc-2cc1 [Example 6, 9-Amino-19-benzyl-14,32-dichloro-5-methyl-26-oxa-4-thia-3,8,10,16,19-pentaazatetracyclo[25.2.2.2^12,15.0^2,6]tritriaconta-1(29),2,5,8,12,14,23,27,30,32-decaene-7,17-dione] | 5 to 50 nM | 
Cc1onc2c1C(=O)/N=C(\N)NCc1cc(Cl)c(c(Cl)c1)NC(=O)CNCC=CCOc1ccc-2cc1 [Example 1, 9-Amino-14,30-dichloro-5-methyl-4,24-dioxa-3,8,10,16,19-pentaazatetracyclo-[23.2.2.2^12,15.0^2,6]hentriaconta-1(27),2,5,8,12,14,21,25,28,30-decaene-7,17-dione] | > 50 nM | 
Cc1snc2c1C(=O)/N=C(\N)NCc1cc(Cl)c(c(Cl)c1)NC(=O)CNCCCCCOc1ccc-2cc1 [Example 9, 9-Amino-14,31-dichloro-5-methyl-25-oxa-4-thia-3,8,10,16,19-pentaazatetracyclo[24.2.2.2^12,15.0^2,6]dotriaconta-1(28),2,5,8,12,14,26,29,31-nonaene-7,17-dione] | < 5 nM | 
Cc1onc2c1C(=O)N=C(N)NCc1ccc(c(Cl)c1)NC(=O)CNCCC/C=C\COc1ccc-2cc1 [Example 11, (23Z)-9-Amino-14-chloro-5-methyl-4,26-dioxa-3,8,10,16,19-pentaazatetracyclo-[25.2.2.2^12,5.0^2,6]tritriaconta-1(29),2,5,8,12,14,23,27,30,32-decaene-7,17-dione] | < 5 nM | 
Cc1onc2c1C(=O)/N=C(\N)NCc1ccc(cc1)NC(=O)CNCCC/C=C\COc1ccc-2cc1 [Example 10, (23Z)-9-Amino-5-methyl-4,26-dioxa-3,8,10,16,19-pentaazatetracyclo-[25.2.2.2^12,15.0^2,6]tritriaconta-1(29),2,5,8,12,14,23,27,30,32-decaene-7,17-dione] | < 5 nM | 
Cc1snc2c1C(=O)/N=C(\N)NCc1cc(Cl)c(c(Cl)c1)NC(=O)CNCCCC=CCOc1ccc-2cc1 [Example 4, 9-Amino-14,32-dichloro-5-methyl-26-oxa-4-thia-3,8,10,16,19-pentaazatetracyclo[25.2.2.2^12,15.0^2,6]tritriaconta-1(29),2,5,8,12,14,23,27,30,32-decaene-7,17-dione] | 5 to 50 nM | 
Cc1onc2c1C(=O)/N=C(\N)NCc1cc(Cl)c(c(Cl)c1)NC(=O)CNCC/C=C/COc1ccc-2cc1 [Example 2, (22E)-9-Amino-14,31-dichloro-5-methyl-4,25-dioxa-3,8,10,16,19-pentaazatetracyclo[24.2.2.2^12,15.0^2,6]dotriaconta-1(28),2,5,8,12,14,22,26,29,31-decaene-7,17-dione] | > 50 nM | 
Cc1snc2c1C(=O)/N=C(\N)NCc1cc(Cl)c(c(Cl)c1)NC(=O)CNCC/C=C\COc1ccc-2cc1 [Example 8, (22Z)-9-Amino-14,31-dichloro-5-methyl-25-oxa-4-thia-3,8,10,16,19-pentaazatetracyclo[24.2.2.2^12,15.0^2,6]dotriaconta-1(28),2,5,8,12,14,22,26,29,31-decaene-7,17-dione] | < 5 nM | 
Cc1onc2c1C(=O)N=C(NC(=O)OC(C)(C)C)NCc1cc(Cl)c(c(Cl)c1)NC(=O)CN(C(=O)OC(C)(C)C)CCCCC=CCOc1ccc-2cc1 (mixture of isomers) |  | ring closure, yield of all isomers ([2]; from C=CCCCCN(CC(=O)Nc1c(Cl)cc(CN/C(=N/C(=O)c2c(-c3ccc(OCC=C)cc3)noc2C)NC(=O)OC(C)(C)C)cc1Cl)C(=O)OC(C)(C)C, Grubbs Catalyst 2nd Generation, 3.71 mM, 45.0 °C, 2.0 h): 64.9%
